According to US4738971A, “N-aryl-1,2-dihydro-4-substituted-1-alkyl-2-oxo-quinoline-3-carboxamides” (priority 1981, dated 1988):

How the values were obtained:
[1] = test system: carrageenan-induced edema; assay: carrageenan edema test in rats; type: in vivo, rat (female Sprague-Dawley); conditions: for change in vivo at 80 mg/kg: Rattus norvegicus, po, 80 mg/kg p.o., 30 min before carrageenan, edema weight 3 h after, vs control, preliminary, read-out: Potentiation of the carrageenan edema, %; for significant potentiation of the carrageenan edema: dose within the range 10-160 mg/kg p.o.
Summary of the method: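 Female Sprague-Dawley rats (110-120 g, ≥10 per group) received compound intragastrically in aqueous methocel 30 min before plantar carrageenan injection into the right hind paw. At 3 h, right minus left paw weight gave edema weight, expressed as percent of methocel controls.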

[2] = test system: delayed hypersensitivity reaction (adjuvant arthritis, Mycobacterium butyricum); assay: adjuvant arthritis test in rats; type: in vivo, rat (male Lister hooded); conditions: for change in vivo at 40 mg/kg / significant potentiating effect in the adjuvant arthritis test: 40 mg/kg p.o.; for change in vivo at 10 mg/kg: 10 mg/kg p.o.
Excerpt: (§1) The adjuvant arthritis test in rats produces a measureable extent of a delayed hypersensitivity reaction and can be used for a determination of variations in the extent of the delayed hypersensitivity reaction upon drug administration to the host. An increase in the extent of the delayed hypersensitivity reaction upon drug administration consequently indicates enhanced cell-mediated immunity in the host.
This example illustrates the effect of the compounds of the general formula I in the adjuvant arthritis test in rats.
as §1, with “produces” for “produces a measureable extent of”, “variations” for “variations in the extent”
A modification of a method described in (12) was used. Male Lister hooded rats weighing 250-275 g were used. At least 9 animals were used in each experimental group.
A single intradermal injection of 0.5 mg/0.1 ml heat killed Mycobacterium butyricum suspended in sterile liquid paraffinum was given into the right hind foot of all rats. After this injection, day 0, the volume of the left hind paw, measured by water displacement, was followed to the end of the experiment.
The substances suspended in aqueous methocel solution 10 ml/kg were given intragastrically. The control group was given methocel solution 10 ml/kg. The different groups of animals were thus treated once daily from day -4 to day 14. The effect of the substances was assessed by the left foot volume expressed in percent after comparison with the control groups.

[3] = test system: delayed hypersensitivity reaction (pertussis vaccine pleurisy); assay: pertussis vaccine pleurisy test in rats; type: in vivo, rat (male Sprague-Dawley); conditions: 10 mg/kg p.o.; for change in vivo at 10 mg/kg: Rattus norvegicus, po, 48 h, once daily day 10 to day 13, vs control, preliminary, read-out: Enhancement of the delayed hypersensitivity reaction assessed by the exudate vol.
Summary of the method: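 Male Sprague-Dawley rats (250-275 g, ≥10/group) sensitized day 0 with heat-killed B. pertussis in Freund's incomplete adjuvant into hind and forepaw, challenged intrapleurally day 12. Compounds in aqueous methocel given intragastrically once daily days 10-13. Pleural exudate volume measured day 14, expressed as percent of methocel control.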

mice = mice p.o.; reference 13; cited from earlier work
[4] = Rattus norvegicus, po, 336 h, once daily day -4 to day 14, vs control, preliminary, read-out: Increase of the volume of the left foot

Row | SMILES | change in vivo at 80 mg/kg [1] [%] | change in vivo at 10 mg/kg [3] [%] | significant potentiation of the carrageenan edema [1] | significant potentiating effect in the adjuvant arthritis test [2] | significant enhancing effect in the pertussis vaccine pleurisy test [3] | change in vivo at 10 mg/kg [2, 4] [%] | further results
1 | Cn1c(=O)c(C(=O)Nc2nccs2)c(O)c2ccccc21 [7:1, N-(2-thiazolyl)-1,2-dihydro-4-hydroxy-1-methyl-2-oxo-quinoline-3-carboxamide] | 84 | 81 | – | – | – | – | change in vivo at 20 mg/kg ([2]; Rattus norvegicus, po, 336 h, 20 mg/kg p.o., once daily day -4 to day 14, vs control, preliminary, read-out: Increase of the volume of the left foot): 44%; change in vivo at 40 mg/kg [2, 4]: 35%
2 | Cn1c(=O)c(C(=O)Nc2cnccn2)c(O)c2ccccc21 [7:4, N-pyrazinyl-1,2-dihydro-4-hydroxy-1-methyl-2-oxo-quinoline-3-carboxamide] | 34 | 27 | – | – | – | – | change in vivo at 40 mg/kg [2, 4]: 29%
3 | CN(C)c1ccc(NC(=O)c2c(O)c3cc(N(C)C)cc4c3n(c2=O)CCC4)cc1 [13:3, N-(4-dimethylaminophenyl)-1,2-dihydro-6-dimethylamino-4-hydroxy-2-oxo-1.8-trimethylene-quinoline-3-carboxamide] | – | – | potentiate significantly | significant potentiating effect | significant enhancing effect | – | –
4 | CCN(C(=O)c1c(O)c2ccccc2n(C)c1=O)c1ccccc1 [21:5, N-ethyl-N-phenyl-1,2-dihydro-4-hydroxy-1-methyl-2-oxo-quinoline-3-carboxamide] | – | 29 | potentiate significantly | significant potentiating effect | – | – | –
5 | COc1ccc(N(C)C(=O)c2c(O)c3ccccc3n(C)c2=O)cc1 [21:6, N-(4-methoxyphenyl)-N-methyl-1,2-dihydro-4-hydroxy-1-methyl-2-oxo-quinoline-3-carboxamide] | 38 | 90 | – | – | – | 41 | –
6 | CN(C(=O)c1c(O)c2ccccc2n(C)c1=O)c1ccccn1 [21:7, N-methyl-N-(2-pyridyl)-1,2-dihydro-4-hydroxy-1-methyl-2-oxo-quinoline-3-carboxamide] | – | 21 | potentiate significantly | significant potentiating effect | – | – | –
7 | CN(C(=O)c1c(O)c2ccccc2n(C)c1=O)c1ccc(Cl)cc1 [21:9, N-(4-chlorophenyl)-N-methyl-1,2-dihydro-4-hydroxy-1-methyl-2-oxo-quinoline-3-carboxamide] | 52 | 84 | – | – | – | 51 | –
8 | COc1ccc(N(C)C(=O)c2c(O)c3cc(OC)ccc3n(C)c2=O)cc1 [21:14, N-(4-methoxyphenyl)-N-methyl-1,2-dihydro-4-hydroxy-6-methoxy-1-methyl-2-oxo-quinoline-3-carboxamide] | – | – | potentiate significantly | significant potentiating effect | significant enhancing effect | – | –
9 | CN(C(=O)c1c(O)c2ccccc2n(C)c1=O)c1ccc(F)cc1 [21:35, N-(4-fluorophenyl)-N-methyl-1,2-dihydro-4-hydroxy-1-methyl-2-oxo-quinoline-3-carboxamide] | – | – | potentiate significantly | significant potentiating effect | significant enhancing effect | – | –
10 | c1ccc([C@H]2CN3CCSC3=N2)cc1 [Levamisole, levamisole, reference compound] | – | 13 | – | – | – | 12 | change in vivo at 5 mg/kg ([2]; Rattus norvegicus, po, 336 h, 5 mg/kg p.o., once daily day -4 to day 14, vs control, preliminary, read-out: Increase of the volume of the left foot): 4%; acute LD50 (mice): 285 mg/kg
